{
  "source": "patent US20250345339A1",
  "about": "“DOSES AND REGIMENS OF HER2 INHIBITORS” (IAMBIC THERAPEUTICS, INC., priority 2024, published 2025)",
  "key": {"wtEGFR": {"molecular_target": "wtEGFR (Homo sapiens (Human), UniProt P00533)", "sequence (P00533 25-1210)": "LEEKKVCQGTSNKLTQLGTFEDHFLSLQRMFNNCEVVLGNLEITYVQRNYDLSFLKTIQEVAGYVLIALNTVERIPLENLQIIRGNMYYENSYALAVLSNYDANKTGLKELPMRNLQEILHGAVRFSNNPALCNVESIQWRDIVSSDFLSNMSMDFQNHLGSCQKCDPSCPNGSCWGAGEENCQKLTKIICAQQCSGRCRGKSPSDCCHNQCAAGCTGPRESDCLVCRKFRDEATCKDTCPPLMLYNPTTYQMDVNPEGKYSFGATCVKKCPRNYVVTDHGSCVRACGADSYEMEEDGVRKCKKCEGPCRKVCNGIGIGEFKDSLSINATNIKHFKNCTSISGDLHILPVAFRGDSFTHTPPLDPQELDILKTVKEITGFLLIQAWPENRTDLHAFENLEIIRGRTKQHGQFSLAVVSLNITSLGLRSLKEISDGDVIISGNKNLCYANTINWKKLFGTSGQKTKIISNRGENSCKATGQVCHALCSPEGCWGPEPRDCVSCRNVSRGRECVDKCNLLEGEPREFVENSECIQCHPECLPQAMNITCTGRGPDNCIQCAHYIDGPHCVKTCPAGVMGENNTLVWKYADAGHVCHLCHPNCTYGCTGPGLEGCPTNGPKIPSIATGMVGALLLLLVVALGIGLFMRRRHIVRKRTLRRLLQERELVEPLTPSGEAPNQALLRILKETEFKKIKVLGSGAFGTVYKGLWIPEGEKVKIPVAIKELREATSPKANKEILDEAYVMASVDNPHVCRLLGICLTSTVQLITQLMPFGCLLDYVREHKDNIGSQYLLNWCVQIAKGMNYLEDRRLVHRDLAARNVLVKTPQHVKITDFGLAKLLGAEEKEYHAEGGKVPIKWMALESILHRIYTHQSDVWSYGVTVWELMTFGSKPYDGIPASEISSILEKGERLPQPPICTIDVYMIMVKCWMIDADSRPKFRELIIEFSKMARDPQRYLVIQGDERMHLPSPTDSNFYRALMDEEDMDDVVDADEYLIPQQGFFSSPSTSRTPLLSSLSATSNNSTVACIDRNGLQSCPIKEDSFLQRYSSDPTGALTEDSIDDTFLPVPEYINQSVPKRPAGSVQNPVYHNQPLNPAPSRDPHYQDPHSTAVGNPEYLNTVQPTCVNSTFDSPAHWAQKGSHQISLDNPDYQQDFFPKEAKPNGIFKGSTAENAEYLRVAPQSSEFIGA", "test": "HotSpot radiometric kinase activity assay, EGFR WT", "format": "biochemical", "description": "(§1) The purpose of the wtERBB2, ERBB2-A775_G776insYVMA (ERBB2YVMA), wtEGFR biochemical assay was to evaluate the inhibition (% inhibition and IC50 values) of the small molecule inhibitors by using the “HotSpot” radiometric kinase activity assay. HotSpot assays monitor the […] of kinase substrate by the radioactive gamma phosphate of adenosine triphosphate (33P-ATP) during biochemical reactions. HotSpot assays was performed in steps upon completion of the kinase reaction: deposition of a reaction mixture aliquot onto P81 ion exchange paper, extensive washing of the aforementioned P81 paper using phosphoric acid to remove unbound radiolabeled 33P-ATP from the P81 paper, and finally visualization and quantification of the dried P81 paper utilizing a phosphoimager. […] Typical reaction solutions (10 μL final reaction volume) contained the following buffer conditions: 20 mM Hepes (pH 7.5), 10 mM MgCl2, 1 mM EGTA, 0.01% Brij35, 0.02 mg/mL BSA, 0.1 mM Na3VO4, 2 mM DTT, 1% DMSO. The assay was primed by preparing a fresh 0.2 mg/mL solution of pEY (Sigma Cat: P7244) substrate in the reaction buffer and supplementing that solution with […] of MnCl2 as substrate cofactor (Sigma Cat: M9522). The kinase of interest was then added to the solution at the appropriate concentration (30 nM wtERBB2 from, or 20 nM ERBB2YVMA, or 4 nM wtEGFR) and gently mixed prior to delivery of compound in 100% DMSO by acoustic dispensing (Beckman Echo550). Compound, Kinase, and substrate were allowed to incubate for 20 minutes at room temperature prior to the initiation of the reaction by addition of 33P-ATP (PerkinElmer Cat: NEG602, final conc 10 μM). […] IC50 determinations were made from a plot of kinase activity as a function of inhibitor concentration fit to the 4-parameter IC50 equation with the enzyme concentration held constant using GraphPad Prism (San Diego)."}, "wtERBB2": {"molecular_target": "wtERBB2 (Homo sapiens (Human), UniProt P04626)", "sequence (P04626 23-1255)": "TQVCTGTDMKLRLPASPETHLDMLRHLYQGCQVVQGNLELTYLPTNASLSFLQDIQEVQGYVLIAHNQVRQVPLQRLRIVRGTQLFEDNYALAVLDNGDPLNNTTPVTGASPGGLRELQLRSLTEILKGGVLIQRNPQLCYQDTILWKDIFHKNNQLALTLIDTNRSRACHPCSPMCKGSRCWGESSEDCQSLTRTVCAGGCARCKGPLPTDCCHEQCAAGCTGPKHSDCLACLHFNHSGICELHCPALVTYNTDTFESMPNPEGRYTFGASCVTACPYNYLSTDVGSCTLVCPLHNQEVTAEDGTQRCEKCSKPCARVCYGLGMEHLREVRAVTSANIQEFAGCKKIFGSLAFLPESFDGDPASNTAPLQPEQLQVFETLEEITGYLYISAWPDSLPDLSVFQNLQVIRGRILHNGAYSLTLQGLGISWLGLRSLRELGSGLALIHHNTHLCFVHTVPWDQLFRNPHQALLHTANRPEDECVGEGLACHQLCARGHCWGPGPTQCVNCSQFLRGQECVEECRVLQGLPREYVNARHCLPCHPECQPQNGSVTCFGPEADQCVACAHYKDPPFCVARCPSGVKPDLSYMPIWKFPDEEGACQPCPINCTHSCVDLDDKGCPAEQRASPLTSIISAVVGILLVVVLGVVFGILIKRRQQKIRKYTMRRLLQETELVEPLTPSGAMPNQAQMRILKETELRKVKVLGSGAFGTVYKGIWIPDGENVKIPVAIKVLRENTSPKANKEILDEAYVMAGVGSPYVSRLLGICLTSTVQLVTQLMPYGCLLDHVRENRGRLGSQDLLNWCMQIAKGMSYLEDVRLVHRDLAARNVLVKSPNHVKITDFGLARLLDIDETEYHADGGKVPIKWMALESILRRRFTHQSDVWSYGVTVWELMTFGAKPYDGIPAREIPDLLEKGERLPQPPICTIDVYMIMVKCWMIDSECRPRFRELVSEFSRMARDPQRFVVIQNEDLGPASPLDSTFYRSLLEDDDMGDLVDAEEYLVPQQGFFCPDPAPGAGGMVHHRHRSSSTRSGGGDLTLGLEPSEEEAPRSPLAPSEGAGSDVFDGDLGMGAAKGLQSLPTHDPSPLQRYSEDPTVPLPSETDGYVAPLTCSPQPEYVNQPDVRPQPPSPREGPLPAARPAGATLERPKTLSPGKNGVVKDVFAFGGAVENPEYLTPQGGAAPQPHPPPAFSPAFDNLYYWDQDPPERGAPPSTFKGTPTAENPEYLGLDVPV", "test": "HotSpot radiometric kinase activity assay, HER2 WT", "format": "biochemical", "description": "as §1"}, "ERBB2-A775_G776insYVMA": {"molecular_target": "ERBB2-A775_G776insYVMA (Homo sapiens (Human), UniProt P04626, INS775YVMA)", "sequence (P04626 other isoform, or with tags, fused parts or gaps del 1-675/ins YVMA behind 775 limits assumed)": "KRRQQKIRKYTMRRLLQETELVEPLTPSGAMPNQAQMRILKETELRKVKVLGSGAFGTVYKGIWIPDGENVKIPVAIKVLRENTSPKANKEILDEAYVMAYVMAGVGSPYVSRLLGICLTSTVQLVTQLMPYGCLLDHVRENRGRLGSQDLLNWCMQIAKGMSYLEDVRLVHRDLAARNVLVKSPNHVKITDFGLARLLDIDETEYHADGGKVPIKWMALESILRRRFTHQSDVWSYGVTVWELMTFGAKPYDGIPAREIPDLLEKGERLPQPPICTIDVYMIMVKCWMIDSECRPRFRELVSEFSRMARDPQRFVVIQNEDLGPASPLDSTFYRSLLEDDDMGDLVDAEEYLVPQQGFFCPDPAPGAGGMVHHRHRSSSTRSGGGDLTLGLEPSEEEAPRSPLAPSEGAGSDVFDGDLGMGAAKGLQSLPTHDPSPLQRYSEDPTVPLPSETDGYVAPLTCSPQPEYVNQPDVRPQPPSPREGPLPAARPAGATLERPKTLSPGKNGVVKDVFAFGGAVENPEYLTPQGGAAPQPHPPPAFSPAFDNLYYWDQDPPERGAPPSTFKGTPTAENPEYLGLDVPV", "test": "HotSpot radiometric kinase activity assay, HER2 YVMA", "format": "biochemical", "description": "as §1"}, "EGFR": {"molecular_target": "EGFR (Homo sapiens (Human), UniProt P00533)", "sequence (P00533 25-1210)": "as the sequence (P00533 25-1210) above", "test": "Enzyme inactivation kinetics, EGFR", "format": "biochemical", "conditions": "Table 23"}, "in vivo": {"test": "in vivo", "conditions": "mouse, tumor/plasma"}, "[1]": {"tested_on": "BT-474 breast cancer cell line", "test": "BT-474 xenograft tumor growth inhibition", "format": "in vivo, mouse", "conditions": "clinical reference compounds", "description": "The tumor cells were routinely sub-cultured after confluence by trypsin-EDTA treatment, not to exceed 4-5 passages. The cells growing in an exponential growth phase were harvested and counted for tumor inoculation.\nTumor size and body weight measurement was conducted twice weekly."}, "KYSE410": {"tested_on": "KYSE410", "test": "KYSE410 tumor model (HER2+ and KRAS G12C)", "conditions": "Compound 5 at 250 mg/kg"}, "BaF3 P95Her2": {"tested_on": "BaF3 P95Her2", "conditions": "100 mg/kg PO daily for 20 days"}, "[2]": {"tested_on": "NCI-N87-luciferase gastric cancer cell line", "test": "Intracranial NCI-N87-luciferase tumor model", "conditions": "for Tumor Growth Inhibition: intracranial NCI-N87, 100 mg/kg QD", "text": "The dosing duration was 37 days, started 12 days after cell inoculation. The dosing Day 1 was Day 12 post cell inoculation.\nThe total bioluminescent signals (photons/s) emitted from the brains after luciferin injection were used as an indicator of tumor growth and antitumor activity."}, "HCC1954": {"tested_on": "HCC1954", "test": "HCC1954 xenograft tumor growth inhibition", "format": "in vivo, mouse", "description": "HCC1954 cells were thawed and cultured in vitro, and the HCC1954 cells were harvested for in vivo inoculation. After one week of acclimation, 16 female 6-8 weeks-old mice were used. After inoculation, the tumor volume and body weight of the mice were measured three times per week. When the average tumor volume reaches about 200 mm^3, mice were randomly grouped into 2 groups according to the tumor volume and body weight. Test drugs were administrated immediately afterward. Tumor volume and body weight measurements were taken twice a week. At the end of the study, tumor and plasma samples were collected. The mouse grouping and test material treatment for tumor growth inhibition is listed Table 7. Tumor size and body weight measurement were conducted twice weekly. At the end of study, Group 1 and Group 2 were split into 2 sub-groups, dosed and samples collected as described Table 8. At the end of treatment, tumor samples were collected for pharmacodynamic (PD) analysis."}, "MDAMB453": {"tested_on": "MDAMB453", "test": "MDAMB453 breast cancer model", "conditions": "100 mg/kg PO daily for 14 days"}, "JIMT-1": {"tested_on": "JIMT-1", "test": "JIMT-1 breast tumor model", "conditions": "20/15 mg/kg PO daily for 9 then 12 days"}},
  "note": "Entries after “also recorded” stand apart in the source; their conditions may differ.",
  "data": [
    {"smiles": "Cc1cc(Nc2ncnn3ccc(C4CN(C(=O)/C=C/CN(C)C)C4)c23)ccc1Oc1ccn2ncnc2c1", "note": "[Compound 1, (E)-1-(3-(4-((4-([1,2,4]triazolo[1,5-a]pyridin-7-yloxy)-3-methylphenyl)amino)pyrrolo[2,1-f][1,2,4]triazin-5-yl)azetidin-1-yl)-4-(dimethylamino)but-2-en-1-one]", "values": [
      {"measurement": "IC50", "setting": "wtEGFR", "result": "< 200", "unit": "nM"},
      {"measurement": "IC50", "setting": "wtERBB2", "result": "< 200", "unit": "nM"},
      {"measurement": "IC50", "setting": "ERBB2-A775_G776insYVMA", "result": "< 200", "unit": "nM"}
    ]},
    {"smiles": "C=CC(=O)N1CCN(c2ccn3ncnc(Nc4ccc(Oc5ccn6ncnc6c5)c(C)c4)c23)CC1", "note": "[Compound 3, 1-(4-(4-((4-([1,2,4]triazolo[1,5-a]pyridin-7-yloxy)-3-methylphenyl)amino)pyrrolo[2,1-f][1,2,4]triazin-5-yl)piperazin-1-yl)prop-2-en-1-one]", "values": [
      {"measurement": "IC50", "setting": "wtEGFR", "result": "< 200", "unit": "nM"},
      {"measurement": "IC50", "setting": "wtERBB2", "result": "< 200", "unit": "nM"},
      {"measurement": "IC50", "setting": "ERBB2-A775_G776insYVMA", "result": "< 200", "unit": "nM"}
    ]},
    {"smiles": "C=CC(=O)N1CCC(c2ccn3ncnc(Nc4ccc(Oc5ccn6ncnc6c5)c(C)c4)c23)CC1", "note": "[Compound 4, 1-(4-(4-((4-([1,2,4]triazolo[1,5-a]pyridin-7-yloxy)-3-methylphenyl)amino)pyrrolo[2,1-f][1,2,4]triazin-5-yl)piperidin-1-yl)prop-2-en-1-one]", "values": [
      {"measurement": "IC50", "setting": "wtEGFR", "result": "< 200", "unit": "nM"},
      {"measurement": "IC50", "setting": "wtERBB2", "result": "< 200", "unit": "nM"},
      {"measurement": "IC50", "setting": "ERBB2-A775_G776insYVMA", "result": "< 200", "unit": "nM"}
    ]},
    {"smiles": "C=CC(=O)N1CC(c2ccn(-c3ccn4ncnc(Nc5ccc(Oc6ccn7ncnc7c6)c(C)c5)c34)n2)C1", "note": "[Compound 8, 1-(3-(1-(4-((4-([1,2,4]triazolo[1,5-a]pyridin-7-yloxy)-3-methylphenyl)amino)pyrrolo[2,1-f][1,2,4]triazin-5-yl)-1H-pyrazol-3-yl)azetidin-1-yl)prop-2-en-1-one]", "values": [
      {"measurement": "IC50", "setting": "wtEGFR", "result": "< 200", "unit": "nM"},
      {"measurement": "IC50", "setting": "wtERBB2", "result": "< 200", "unit": "nM"},
      {"measurement": "IC50", "setting": "ERBB2-A775_G776insYVMA", "result": "< 200", "unit": "nM"}
    ]},
    {"smiles": "Cc1cc(Nc2ncnn3ccc(C4CCCN(C(=O)/C=C/CN(C)C)CC4)c23)ccc1Oc1ccn2ncnc2c1", "note": "(centres unmarked) [Compound 12, (E)-1-(4-(4-((4-([1,2,4]triazolo[1,5-a]pyridin-7-yloxy)-3-methylphenyl)amino)pyrrolo[2,1-f][1,2,4]triazin-5-yl)azepan-1-yl)-4-(dimethylamino)but-2-en-1-one]", "values": [
      {"measurement": "IC50", "setting": "wtERBB2", "result": "< 200", "unit": "nM"},
      {"measurement": "IC50", "setting": "ERBB2-A775_G776insYVMA", "result": "< 200", "unit": "nM"}
    ]},
    {"smiles": "Cc1cc(Nc2ncnn3ccc(C4CC5(C4)CN(C(=O)/C=C/CN(C)C)C5)c23)ccc1Oc1ccn2ncnc2c1", "note": "[Compound 13, (E)-1-(6-(4-((4-([1,2,4]triazolo[1,5-a]pyridin-7-yloxy)-3-methylphenyl)amino)pyrrolo[2,1-f][1,2,4]triazin-5-yl)-2-azaspiro[3.3]heptan-2-yl)-4-(dimethylamino)but-2-en-1-one]", "values": [
      {"measurement": "IC50", "setting": "wtERBB2", "result": "< 200", "unit": "nM"},
      {"measurement": "IC50", "setting": "ERBB2-A775_G776insYVMA", "result": "< 200", "unit": "nM"}
    ]},
    {"smiles": "Cc1cc(Nc2ncnn3ccc(-c4cnn(CCNC(=O)/C=C/CN(C)C)c4)c23)ccc1Oc1ccn2ncnc2c1", "note": "[Compound 14, (E)-N-(2-(4-(4-((4-([1,2,4]triazolo[1,5-a]pyridin-7-yloxy)-3-methylphenyl)amino)pyrrolo[2,1-f][1,2,4]triazin-5-yl)-1H-pyrazol-1-yl)ethyl)-4-(dimethylamino)but-2-enamide]", "values": [
      {"measurement": "IC50", "setting": "wtERBB2", "result": "< 200", "unit": "nM"}
    ]},
    {"smiles": "Cc1noc2ccc(C(=O)Nc3ccc4[nH]c(CN5CCCC5)nc4c3)cc12", "note": "[ELVN-002]", "values": [
      {"measurement": "EGFR kinact (s − 1)", "setting": "EGFR", "result": "1.1 × 10^−2 s − 1"},
      {"measurement": "HER2 vs. EGFR Kinetic Selectivity", "setting": "EGFR", "result": 47},
      {"measurement": "Ki", "setting": "EGFR", "result": 680, "unit": "nM"}
    ]},
    {"smiles": "C=CC(=O)N1CCC(Oc2cc3c(Nc4ccc(Cl)c(Cl)c4F)ncnc3cc2OC)CC1", "note": "[Poziotinib]", "values": [
      {"measurement": "Kp at 4 h", "setting": "in vivo", "result": 0.36}
    ]},
    {"smiles": "CCOc1cc2ncnc(Nc3ccc(Oc4ccn5ncnc5c4)c(C)c3)c2cc1NC(=O)/C(F)=C/[C@H]1CCCN1C", "note": "[SPH5030]", "values": [
      {"measurement": "TR compared with Compound 5", "setting": "[1]", "result": "significantly less TR than Compound 5"}
    ]},
    {"smiles": "Cc1cc(Nc2ncnc3ccc(NC4=NC(C)(C)CO4)cc23)ccc1Oc1ccn2ncnc2c1", "note": "[Tucatinib]", "values": [
      {"measurement": "anti-tumor activity, in words", "setting": "KYSE410", "result": "ineffective; also recorded: weak or no activity; also recorded: weak/no activity"},
      {"measurement": "TGI (tumor growth inhibition)", "setting": "BaF3 P95Her2", "result": 99, "unit": "%"},
      {"measurement": "TR compared with Compound 5", "setting": "[1]", "result": "significantly less TR than Compound 5"},
      {"measurement": "antitumor effect in intracranial model, in words", "setting": "[2]; NCI-N87-luc intracranial xenograft", "result": "only modest single agent effect"},
      {"measurement": "Tumor Growth Inhibition", "setting": "[2]; Day 5", "result": 9, "unit": "%"},
      {"measurement": "Tumor Growth Inhibition", "setting": "[2]; Day 9", "result": "−11", "unit": "%"},
      {"measurement": "Tumor Growth Inhibition", "setting": "[2]; Day 13", "result": "−14", "unit": "%"},
      {"measurement": "Tumor Growth Inhibition", "setting": "[2]; Day 16", "result": 18, "unit": "%"},
      {"measurement": "Tumor Growth Inhibition", "setting": "[2]; Day 19", "result": 45, "unit": "%"},
      {"measurement": "Tumor Growth Inhibition", "setting": "[2]; Day 23", "result": 25, "unit": "%"},
      {"measurement": "Tumor Growth Inhibition", "setting": "[2]; Day 26", "result": 30, "unit": "%"},
      {"measurement": "TGI (tumor growth inhibition)", "setting": "HCC1954; HCC1954, 100 mg/kg PO daily for 21 days", "result": 30, "unit": "%"},
      {"measurement": "anti-tumor effect", "setting": "HCC1954; HCC1954, comparator", "result": "tumor stasis"},
      {"measurement": "anti-tumor effect (FIG. 29)", "setting": "HCC1954; HCC1954 xenograft, Compound 5 100 and 250 mg/kg, tucatinib 100 mg/kg", "result": "did not achieve tumor stasis"},
      {"measurement": "TGI (tumor growth inhibition)", "setting": "MDAMB453", "result": 90, "unit": "%"}
    ]},
    {"smiles": "Cc1nc(NC(=O)N2CCC[C@H]2C(N)=O)sc1-c1ccnc(C(C)(C)C(F)(F)F)c1", "note": "[alpilisib]", "values": [
      {"measurement": "TGI", "setting": "JIMT-1", "result": 64, "unit": "%"}
    ]}
  ]
}
